Measurements reported in PMC3527569, “Anti-Inflammatory and Vasoprotective Activity of a Retroviral-Derived Peptide, Homologous to Human Endogenous Retroviruses: Endothelial Cell Effects” (PLoS ONE, 2012).
Several values for one entry are separate records, joined by “and”; a condition that tells them apart may be missing. Equal entries are not always repeated. Entries after “also recorded” stand apart in the source; their conditions may differ. Where a SMILES comes first, the peptide text is derived from it. Bridges are numbered along the chain shown (N, C = ends). Roman numbers before positions name the chains, in order.

Legend:
[1] = system: inflammatory accumulation of monocytes/macrophages; experiment: Mouse NaIO4-induced inflammatory peritonitis model; format: in vivo, mouse (CD-1); conditions: doses as high as 40 µg (10 nmol)
Experimental: Effects of test compounds on the inflammatory accumulation of monocytes/macrophages or neutrophils in vivo were determined using a mouse peritonitis model. Briefly, groups of five 6–8 week old CD-1 outbred mice (Charles River; Raleigh, NC) were injected intraperitoneally (i.p.) with 1.0 ml of a sterile inflammatory stimulus (NaIO4; 5 mM in sterile isotonic saline; Sigma; St. Louis, MO). This procedure results in a dramatic accumulation of neutrophils in the peritoneal cavity which peaks at 6–8 h post injection, followed by an accumulation of monocytes/macrophages which peaks at 48–72 h post injection. Mice were euthanized by CO2 asphyxiation at either 6 h (for neutrophils) or 48 h (for monocyte/macrophages), the peritoneal cavities lavaged with two 10-ml washes of heparinized (10 u/ml; Sigma; St. Louis, MO) HBSS containing 0.1% (w/v) BSA, the washes pooled, and total and differential cells counts determined for each pooled cell suspension. Each test material was evaluated in a group of five mice, each of which was injected subcutaneously in the thigh with 0.2 ml of test material in HBSS 24 h prior to the i.p. injection of the inflammatory stimulus.

carrageenan-induced DIC = experiment: Mouse carrageenan-induced DIC model, lethality; format: in vivo, mouse (CD-1)
Experimental: (§1) Groups of 10 male CD-1 mice were injected i.p. with 0.25 ml of either vehicle (PBS) or peptide in vehicle at varying times prior to the i.p. injection of 1.0 ml of carrageenan (0.45% [w/v] in PBS; Sigma). In experiments where serum cytokine levels were determined, groups of 5 mice were euthanized at 1-, 2-, 4-, 8-, and 24-h post injection of carrageenan, blood collected by cardiac puncture into heparinized syringes, and the resultant plasma stored at −80°C until assayed by ELISA. […] At 1-, 2-, 4-, and 24-h post injection of carrageenan, five mice from each group were euthanized and heparinized blood samples collected from the heart using heparinized syringes for subsequent determinations of WBC (white blood cell) counts, RBC (red blood cell) counts, or PLT (platelet) counts.

[2] = system: endothelial nitric oxide synthase (eNOS) mRNA; experiment: RT-PCR of eNOS mRNA in HUVEC; format: cell-based, human; conditions: data not shown
Experimental: (§2) Cells were cultured with various concentrations of test materials, either with or without stimulus, for varying times. The cells were collected, washed and total RNA isolated using the RNeasy Mini Kit (Qiagen; Valencia, CA). Following isolation the RNA was treated with 7 units of DNase I according to the RNase-Free DNase Set (Qiagen; Valencia, CA) protocol. Using these procedures we usually obtained ∼50 µg of total RNA/10^7 cells. cDNA was prepared from the isolated mRNAs and RT-PCR performed on the target cytokines/chemokines/growth factors using appropriate primer pairs and a control primer pair for β-actin (all from R & D Systems; Minneapolis, MN). RT-PCR was generally performed for 30 cycles for β-actin and 35–45 cycles for iNOS and VEGF.

dengue virus = experiment: Vascular leak in liver of mice injected with dengue virus; design: species or system mouse; conditions: 1 µg intraperitoneal; dengue virus i.v.; preliminary in vivo studies
TNF-α = experiment: Plasma TNF-α in mouse carrageenan DIC model (ELISA); format: in vivo, mouse (CD-1); conditions: 1 mg (245 nmol) i.p. 18 h before carrageenan, over 24 h, groups of 5 mice
Experimental: as §1
(§3) Cytokine measurements of serum samples from MN10021-treated mice were performed by sandwich ELISA assays (R & D systems) according to the manufacturer’s instructions for use of its kits with sera samples.

IL-6 = experiment: Plasma IL-6 in mouse carrageenan DIC model (ELISA); format: in vivo, mouse (CD-1); conditions: 1 mg (245 nmol) i.p. 18 h before carrageenan, peak at 4 h
Experimental: as §1, §3

[3] = mice; data not shown
systolic blood pressure = experiment: SHR rat hypertension model (tail cuff); format: in vivo
Experimental: As part of a general pharmacological screen, MN10021 was evaluated in a rat model of hypertension by MDS-PanLabs (Bothell, WA). […] Blood pressure measurements were made by tail cuff at 1, 2, and 4 h post administration of test compounds. A decrease of ≥10% of the baseline systolic blood pressure is considered significant in this assay.

[4] = system: blood leukocyte and platelet counts; experiment: Blood cell counts (WBC, PLT) in mouse carrageenan DIC model; format: in vivo, mouse (CD-1); conditions: 245 nmol i.p. 18 h before carrageenan
Experimental: as §1

[5] = reason why binding studies were performed at 37°C
HUVEC = experiment: TNF-α-induced necrosis in HUVEC (Cell Death Detection ELISA, supernatant); format: cell-based, human; conditions: HUVEC pretreated 3 h with 6.25-50 µM peptide, TNF-α 100 ng/ml, overnight
Experimental: Apoptosis was measured in HUVEC using the Cell Death Detection ELISA^PLUS kit (Roche Diagnostics; Indianapolis, IN) according to the manufacturer's instructions. This assay is based on a quantitative sandwich-enzyme-immunoassay using mouse monoclonal antibodies directed against both DNA and histones, respectively. It allows the specific determination of mono- and oligonucleosomes in the cytoplasmic fraction of cell lysates (apoptosis) and in the supernatant of dying cells (necrosis). The apoptotic index (AI) was calculated as
where treatment refers to use of a known apoptosis- or necrosis-inducing agent (staurosporine, TNF-α).

[6] = system: iNOS (inducible nitric oxide synthase) mRNA; experiment: RT-PCR of iNOS mRNA in HUVEC; format: cell-based, human; conditions: 50 µM peptide, 3 h, 37°C, quiescent HUVEC, RT-PCR
Experimental: as §2

[7] = 100 mg/kg orally (gavage), groups of 3 SHR rats, tail cuff, vs 0 h value

| Molecule | anti-inflammatory activity in peritonitis model [1] | protection in lethal model of carrageenan-induced DIC (carrageenan-induced DIC; 73 nmol) | mice protected from lethal carrageenan (carrageenan-induced DIC; 30 µg (7 nmol) i.p. 18 h prior to carrageenan, groups of 10 CD-1 mice) | survival time after carrageenan (carrageenan-induced DIC; 1 mg (245 nmol) i.p. before i.p. carrageenan, 120 h longest time observed) | effect on expression of mRNA for eNOS [2] | effect on vascular leak in the liver of dengue virus-injected mice (dengue virus) | block of carrageenan-induced increase in plasma TNF-α (TNF-α) | block of peak plasma IL-6 response (IL-6) | time to detection in the blood after s.c. injection [3] [min] | decreases in blood pressure at the three time points (1, 2, 4 h) (systolic blood pressure; 30 mg/kg orally, data not shown) | decrease in blood pressure at 1 h (systolic blood pressure; [7]) [%] | decrease in blood pressure at 2 h (systolic blood pressure; [7]) [%] | decrease in blood pressure at 4 h (systolic blood pressure; [7]) [%] | lowering of blood pressure within 1 h (systolic blood pressure; orally-administered (abstract)) | effect on carrageenan-induced leukocytosis (WBC) [4] | PLT count of treated mice, percent of normal ([4]; over the 24 h period) | solubility at lower temperatures [5] | protection against TNF-α-induced necrosis (HUVEC) | induction of mRNA for iNOS in HUVEC [6] |
| --- | --- | --- | --- | --- | --- | --- | --- | --- | --- | --- | --- | --- | --- | --- | --- | --- | --- | --- | --- |
| H-LGGEKLFLLDGRNQLC-OH (disulfide (positions not given here)) [MN20050] | no anti-inflammatory activity | – | – | – | – | – | – | – | – | – | – | – | – | – | – | – | – | – | – |
| CC(C)C[C@H](NC(=O)CNC(=O)CNC(=O)[C@H](CCC(=O)O)NC(=O)[C@H](CCCCN)NC(=O)[C@H](CC(C)C)NC(=O)[C@H](Cc1ccccc1)NC(=O)[C@H](CC(C)C)NC(=O)[C@H](CC(C)C)NC(=O)[C@H](CC(=O)O)NC(=O)[C@H](CC(C)C)NC(=O)CNC(=O)[C@H](CCCNC(=N)N)NC(=O)[C@H](CCCNC(=N)N)NC(=O)[C@H](CC(N)=O)NC(=O)[C@H](CCC(N)=O)NC(=O)[C@@H](N)CC(C)C)C(=O)N[C@@H](CSSC[C@H](NC(=O)[C@H](CC(C)C)NC(=O)CNC(=O)CNC(=O)[C@H](CCC(=O)O)NC(=O)[C@H](CCCCN)NC(=O)[C@H](CC(C)C)NC(=O)[C@H](Cc1ccccc1)NC(=O)[C@H](CC(C)C)NC(=O)[C@H](CC(C)C)NC(=O)[C@H](CC(=O)O)NC(=O)[C@H](CC(C)C)NC(=O)CNC(=O)[C@H](CCCNC(=N)N)NC(=O)[C@H](CCCNC(=N)N)NC(=O)[C@H](CC(N)=O)NC(=O)[C@H](CCC(N)=O)NC(=O)[C@@H](N)CC(C)C)C(=O)O)C(=O)O [MN10021] (I: H-LQNRRGLDLLFLKEGGLC-OH / II: H-LQNRRGLDLLFLKEGGLC-OH; disulfide I:18-II:18) | – | completely protects | approximately 50% | at least 120 h | Neither MN10021 nor DUK0005 affected | inhibit the vascular leak | ~85% and > 80% | about 50% | ≤ 15 | 3–4% | 12 | 15 | 13 | 10–15% | prevented much of the leukocytosis | approximately 50% | insolubility | significant protection; also recorded: block almost completely | induces mRNA for iNOS |
